Experimental findings from ChEMBL document CHEMBL6127094, “Discovery of non-antiproliferative selective estrogen receptor degraders (SERDs) based on scaffold optimization of elacestrant” (Eur J Med Chem, 2024) are described below.

The source made the active and inactive calls. The rule behind the calls is not given here.

Assay [1] relates to MCF7. Kind of assay: Antiproliferative activity against human MCF7 cells assessed as reduction in cell viability at 5 to 100 uM incubated for 120 hrs by MTT assay relative to fulvestrant/elacestrant. Format: functional, cell-based. Particulars: dose 5-100 µM. (Tetrazolium dyes change colour on reduction, which living cells bring about.)
In assay [2] the target is T1, Estrogen receptor (Homo sapiens) (UniProt P03372).
T1 sequence (whole entry): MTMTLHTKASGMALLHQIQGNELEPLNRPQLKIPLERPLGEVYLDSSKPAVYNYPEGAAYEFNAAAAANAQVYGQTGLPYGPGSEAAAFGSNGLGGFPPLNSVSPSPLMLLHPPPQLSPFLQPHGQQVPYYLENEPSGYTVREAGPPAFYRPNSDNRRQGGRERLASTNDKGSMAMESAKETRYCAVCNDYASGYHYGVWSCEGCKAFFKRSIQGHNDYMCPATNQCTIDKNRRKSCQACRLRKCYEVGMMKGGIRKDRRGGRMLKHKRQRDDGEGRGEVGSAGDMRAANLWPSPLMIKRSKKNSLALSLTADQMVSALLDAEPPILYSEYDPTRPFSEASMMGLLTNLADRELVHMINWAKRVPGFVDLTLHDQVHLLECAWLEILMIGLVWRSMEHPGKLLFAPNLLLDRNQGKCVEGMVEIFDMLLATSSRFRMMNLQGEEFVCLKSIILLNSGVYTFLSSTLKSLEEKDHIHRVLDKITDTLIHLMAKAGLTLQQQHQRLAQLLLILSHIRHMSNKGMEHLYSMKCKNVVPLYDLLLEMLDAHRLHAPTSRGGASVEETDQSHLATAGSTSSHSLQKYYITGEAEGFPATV
Description: Induction of selective estrogen receptor degradation (SERD) in human MCF7 cells assessed as decrease in TFF1 mRNA expression level incubated for 24 hrs in presence of E2 (estrogen) by RT-qPCR analysis. Format: cell-based. Background: In qPCR the cycle at which signal appears reflects the starting amount.

Assay [3] addresses T1, Estrogen receptor (Homo sapiens). Kind of assay: Induction of selective estrogen receptor degradation (SERD) in human MCF7 cells assessed as decrease in GREB1 mRNA expression level incubated for 24 hrs in presence of E2 (estrogen) by RT-qPCR analysis. Format: cell-based.
For assay [4], the system named is MCF7. Description: Inhibition of ERE signaling in human MCF7 cells transfected with 3X ERE TATA luciferase plasmid assessed as estrogen response element transcription at 10 uM incubated for 24 hrs by luminescence based analysis relative to elacestrant. In kind it is functional, cell-based.
Assay [5] addresses T1, Estrogen receptor (Homo sapiens). Description: Induction of selective estrogen receptor degradation (SERD) in human MCF7 cells assessed as decrease in CCND1 mRNA expression level at 1 uM incubated for 24 hrs by RT-qPCR analysis. Format: cell-based.
For assay [6] the target is unchanged. Description: Induction of selective estrogen receptor degradation (SERD) in human MCF7 cells assessed as decrease in CCND1 mRNA expression level at 1 to 10 uM incubated for 24 hrs in presence of E2 (estrogen) by RT-qPCR analysis. In kind it is cell-based. As to conditions: dose 1-10 µM.
Assay [7] shares this target. Kind of assay: Induction of selective estrogen receptor degradation (SERD) in human T47D cells at 5 uM incubated for 24 hrs by Western blot analysis. Format: cell-based. In general terms: A western blot detects proteins with antibodies after separation by electrophoresis.
The target is the same in assay [8]. Description: Induction of selective estrogen receptor degradation (SERD) in human MCF7 cells assessed as decrease in TFF1 mRNA expression level at 1 uM incubated for 24 hrs by RT-qPCR analysis. In kind it is cell-based.
Assay [9] has the same target. Kind of assay: Induction of selective estrogen receptor degradation (SERD) in human MCF7 cells assessed as decrease in TFF1 mRNA expression level at 1 to 10 uM incubated for 24 hrs in presence of E2 (estrogen) by RT-qPCR analysis. Particulars: dose 1-10 µM. Format: cell-based.
Another assay has as its system T47D. Description: Antiproliferative activity against human T47D cells assessed as reduction in cell viability at 1 to 10 uM incubated for 120 hrs by MTT assay. Format: functional, cell-based. Particulars: dose 1-10 µM.
Assay [10] concerns the target T1, Estrogen receptor (Homo sapiens). Description: Induction of selective estrogen receptor degradation (SERD) in human MCF7 cells at 5 uM incubated for 24 hrs by Western blot analysis. In kind it is cell-based.

Take `CCN(Cc1ccc(OCCN2CCCC2)cc1)c1cc(F)ccc1N1CCc2cc(O)ccc2C1`: in the assay on MCF7 [1], the outcome was inactive.

In the case of `CCN(Cc1ccc(OCCN2CCCCCC2)cc1)c1cc(F)ccc1N1CCc2cc(O)ccc2C1`, the outcome in the assay on MCF7 [1] was inactive.

For the compound `CCNCCc1ccc(CN(CC)c2cc(OC)ccc2[C@@H]2CCc3cc(O)ccc3C2)cc1`, the outcome in assay [2] and in assay [3] was Active.

As for `CCN(Cc1ccc(OCCN2CCCC2)cc1)c1cc(C)ccc1N1CCc2cc(O)ccc2C1`, the outcome with MCF7 [1] was inactive.

For the compound `CCN(C(=O)c1ccc(OCCN2CCCC2)cc1)c1cc(C(F)(F)F)ccc1N1CCc2cc(O)ccc2C1`, in the assay with MCF7 [1], the result was inactive.

On to `CCN(Cc1ccc(OCCN2CCCC2)cc1)c1cc(C(F)(F)F)ccc1N1CCc2cc(O)ccc2C1`, for which the outcome with MCF7 [1] was inactive.

Regarding `CCN(Cc1ccc(OCCN2CCCCCC2)cc1)c1ccccc1N1CCc2cc(O)ccc2C1`, the result with MCF7 [1] was inactive.

Turning to `CCN(C(=O)c1ccc(OCCN2CCCC2)cc1)c1cc(F)ccc1N1CCc2cc(O)ccc2C1`, the result in the assay with MCF7 [1] was inactive.

Turning to `CCN(C(=O)c1ccc(OCCN2CCCC2)cc1)c1cc(C)ccc1N1CCc2cc(O)ccc2C1`, the outcome in the assay with MCF7 [1] was inactive.

For the compound `CCN(Cc1ccc(OCCN2CCCCCC2)cc1)c1cc(C)ccc1N1CCc2cc(O)ccc2C1`, in the assay with MCF7 [1], the result was inactive.

As to `CCN(Cc1ccc(OCCN2CCCCCC2)cc1)c1cc(C(F)(F)F)ccc1N1CCc2cc(O)ccc2C1`, the outcome with MCF7 [1] was inactive.

Consider `CCN(Cc1ccc(OCCN2CCCC2)cc1)c1ccccc1N1CCc2cc(O)ccc2C1`, for which the result in the assay with MCF7 [1] was inactive.

As for `CCN(Cc1ccc(/C=C/C(=O)O)cc1)c1cc(C(F)(F)F)ccc1N1CCc2cc(O)ccc2C1`, in the assay with MCF7 [4], the inhibition result was “inactive”. The result in the assay on MCF7 [1] and in the assay on T47D was inactive. The result in assay [5], in assay [6], in [7], in [8], in [9] and in assay [10] was Active.

As to `CCN(Cc1ccc(/C=C/C(=O)O)cc1)c1cc(C)ccc1N1CCc2cc(O)ccc2C1`, in the assay with MCF7 [1], the outcome was inactive.

Consider `CCN(C(=O)c1ccc(OCCN2CCCC2)cc1)c1ccccc1N1CCc2cc(O)ccc2C1`, for which the result in the assay on MCF7 [1] was inactive.

In the case of `CCN(Cc1ccc(/C=C/C(=O)O)cc1)c1ccccc1N1CCc2cc(O)ccc2C1`, in the assay with MCF7 [1], the outcome was inactive.

For the compound `CCN(Cc1ccc(/C=C/C(=O)O)cc1)c1cc(F)ccc1N1CCc2cc(O)ccc2C1`, the outcome with MCF7 [1] was inactive.
